Assay results: patent US20180267043A1, “USE OF BIOMARKERS FOR PREDICTING CLINICAL SENSITIVITY TO CANCER TREATMENT” (CELGENE CORPORATION, priority 2014, published 2018)

Assays:
Format in all cases: cell-based, human
PERK pathway of UPR = assay: RNA level of PERK pathway components in 293FT HEK cells; settings: parental and control shRNA cells, 1 nM or 10 nM, 24 hours
Method: (§1) The mechanism of Compound C-induced Unfolded Protein Response (UPR) was studied in 293FT HEK cells. Parental cells, CRBN−/− cells, cells expressing control shRNA, or cells expressing GSPT1-specific shRNA were treated with DMSO, 1 nM, or 10 nM Compound C. The RNA level of variant cellular components along the PERK pathway of UPR was measured and normalized with GAPDH at 24 hours after treatment.

HEK 293FT cells [1] = assay: CellTiter-Glo cell viability assay, HEK 293FT cells with GSPT1 overexpression
Method: The effect of overexpression of GSPT1 on Compound C-induced growth inhibition was tested in HEK 293FT cells. 293 cells stably expressing GSPT1 driven by three different promoters were generated. To these cells, Compound C was added at concentration of 0, 1 nM, 10 nM, 100 nM, or 1000 nM. Cell proliferation was measured by CellTiter-Glo cell viability assay (RLU-Relative Luminescent Unit) at day 2. […] The expression level of GSPT1 was measured at 10 hours after compound treatment in the right part of FIG. 7. […] Thus, overexpression of GSPT1 confers Compound C resistance to HEK 293FT cells.

[2] = tested on: GSPT1, UPR or apoptosis pathways; assay: Protein level of UPR and apoptosis components in KG1 cells
Method: Cells were treated with DMSO alone or 20 nM Compound C. The expression levels of various cellular components along UPR or apoptosis pathways were measured at various time points post treatment.

Molm13 = assay: CellTiter-Glo cell viability assay, Molm13; settings: 48 hours
Method: The effect of overexpression of GSPT1 on the anti-proliferative effect of Compound C was determined in human histiocytic lymphoma cell line U937 and human leukemia cell line Molm13. Treatment compounds were titrated from 0.1 nM to 1 μM. Cell proliferation was measured by CellTiter-Glo cell viability assay at 48 hours after treatment.

RPMI-8226 = assay: Sensitivity to compound-induced ER stress and apoptosis, RPMI-8226
Method: The GSPT1 dependency was shown by GSPT1-specific shRNA knockdown experiment. The GSPT1 degradation efficiency was shown by Western Blot. The induction of ATF3 or DDIT3 was measured by quantitative RT-PCR. […] Time needed for Compound C-induced ER stress or Compound C-induced apoptosis was summarized. […] High ER demand may contribute to the sensitivity of certain cancer cells to the treatment of Compound C.

XBP1 and ATF6 pathways = assay: RNA level of XBP1 and ATF6 pathway components in 293FT HEK cells; settings: 1 nM or 10 nM, 24 hours
Method: as §1, with “C-activated XBP1 and ATF6 pathways” for “C-induced Unfolded Protein Response (UPR)”, “XBP1 and ATF6 pathways” for “PERK pathway of UPR”

[3] = tested on: GSPT1/eRF3a, GSPT2/eRF3b, and HBS1L/eRF3c; assay: Immunoblotting of CRBN/Compound C substrates in 293 HEK cells; settings: 8 hours
Method: Immunblotting analysis was performed to confirm GSPT1/eRF3a, GSPT2/eRF3b, and HBS1L/eRF3c as authentic substrates of the CRBN/Compound C complex. 293 HEK cells transiently transfected with HA-tagged HBS1L or FLAG-tagged GSPT2 were treated with Compound at the indicated concentrations for 8 hours.

HEK 293FT cells [4] = assay: CellTiter-Glo cell viability assay, HEK 293FT cells with GSPT1 shRNA
Method: The effect of depletion of GSPT1 on Compound C-induced anti-proliferation was examined in HEK 293FT cells. Cells were infected with either expression vector alone, or vector containing control shRNA or GSPT1-specific shRNA. The cells were then treated with Compound C at different concentrations. Cell proliferation was measured by the CellTiter-Glo cell viability assay (RLU-Relative Luminescent Unit).

[5] = 293FT parental and control shRNA cells

SMILES: Cc1ccc(NC(=O)NCc2ccc3c(c2)CN(C2CCC(=O)NC2=O)C3=O)cc1Cl (stereo not drawn) [Compound C, 1-(3-chloro-4-methylphenyl)-3-((2-(2,6-dioxopiperidin-3-yl)-1-oxoisoindolin-5-yl)methyl)urea]
- RNA level of ATF4, ATF3, DDIT3, PPP1R15A, and GADD45A normalized with GAPDH (PERK pathway of UPR): induces expression of ATF4, ATF3, DDIT3, PPP1R15A, and GADD45A
- Cell proliferation (growth inhibition) (HEK 293FT cells [1]; GSPT1 overexpression driven by different promoters, 0-1000 nM, day 2): confers various degrees of resistance to Compound C-induced growth inhibition
- Cell proliferation (compound resistance) (HEK 293FT cells [1]; cells expressing CMV-GSPT1): exhibit the highest level of Compound C resistance
- Cell proliferation (HEK 293FT cells [1]; parental cells, 0-1000 nM, day 2): inhibits cell proliferation in parental cells
- Levels of Mcl-1 and pS112-BAD ([2]; KG1 (FIG. 18B)): decrease in response to Compound C treatment
- Levels of cleaved Caspase-8, BID, cleaved Caspase-9, cleaved Caspase-3, cleaved Caspase-7, and cleaved PARP ([2]; KG1 (FIG. 18B)): increase in response to Compound C treatment
- Degradation of GSPT1 ([2]; KG1, 20 nM): induced degradation of GSPT1
- Expression of ATF-4 and ATF-3 ([2]; KG1, 20 nM): increased the expression of ATF-4 and its downstream target ATF-3
- Levels of pEIF2α, DDIT3, cleaved Caspase-3, and cleaved PARP ([2]; KG1, 20 nM): also increased
- Anti-proliferative effect (Molm13; Molm13, exogenous GSPT1 overproduced via EF1a promoter): the anti-proliferative effect of Compound C reduces
- Anti-proliferative effect (Molm13; Molm13 CRBN −/− cells): completely abolished
- Cell proliferation (Molm13; Molm13 parental cells, 0.1 nM to 1 μM): inhibits cell proliferation
- Sensitivity to compound-induced ER stress and apoptosis (RPMI-8226): resistant to Compound C-induced ER stress and apoptosis
- RNA level of ATF6 pathway components (XBP1, EDEM1, EDEM2, HYOU1, HSPA5) (XBP1 and ATF6 pathways; [5]): induces expression
- RNA level of XBP1 pathway components (SEC24D, DNAJB9, DNAJC6, XBP1, EDEM1, EDEM2, HYOU1) (XBP1 and ATF6 pathways; [5]): induces expression
- RNA level of XBP1 and ATF6 pathway components (XBP1 and ATF6 pathways; cells with GSPT1 knockdown): This induction effect increases
- Binding partners of CRBN induced by compound binding [3]: GSPT1/eRF3a, GSPT2/eRF3b, and HBS1L/eRF3c are binding partners of CRBN induced by Compound C binding
- Degradation of GSPT1/eRF3a, GSPT2/eRF3b, and HBS1L/eRF3c ([3]; increased concentration): induces degradation
- Cell proliferation (HEK 293FT cells [4]; CRBN+/+ parental cells, expression vector alone, or control shRNA): show sensitivity to Compound C-induced anti-proliferation
- Cell proliferation (HEK 293FT cells [4]; CRBN−/− cells): cannot inhibit cell proliferation
- Cell proliferation (HEK 293FT cells [4]; GSPT1-specific shRNA knockdown): growth inhibition starting at even lower concentration of compound treatment
